This passage reports Ki results from patent US8669247B2, “2,5-disubstituted arylsulfonamide CCR3 antagonists” (Axikin Pharmaceuticals, Inc., priority 2009, dated 2014).

This test deals with T1, CCR3 receptor (UniProt P51677).
T1 sequence (P51677 1-355): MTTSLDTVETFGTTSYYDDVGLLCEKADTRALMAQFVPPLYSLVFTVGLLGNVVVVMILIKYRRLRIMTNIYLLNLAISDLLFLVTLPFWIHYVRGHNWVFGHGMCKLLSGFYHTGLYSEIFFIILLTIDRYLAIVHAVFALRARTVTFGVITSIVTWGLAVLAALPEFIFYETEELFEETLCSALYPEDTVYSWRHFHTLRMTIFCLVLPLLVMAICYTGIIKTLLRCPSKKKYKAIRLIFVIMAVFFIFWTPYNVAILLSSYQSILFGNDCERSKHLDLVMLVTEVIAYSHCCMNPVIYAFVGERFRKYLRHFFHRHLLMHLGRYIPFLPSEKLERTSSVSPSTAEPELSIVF
As to the kind of experiment: CCR3 Receptor Binding Assay ([125I]-labeled human eotaxin/CCL11 displacement on cells). Here is the method:
Cells were washed once with PBS and resuspended in a binding buffer (25 mM HEPES pH 7.6, 5 mM MgCl2, 1 mM CaCl2, 0.5% BSA, 0.1% NaN3), […] of cell suspension (2×10^5 cells/well) and 0.1 nM [^125I]-labeled human eotaxin/CCL11 (2000 Ci/mmol specific activity) were mixed in a 96-well U-bottom polypropylene plate, and incubated for 60 min at room temperature for the binding reaction. The cell suspension was then transferred to a filtration plate (#MAFB, Millipore), and washed 3 times with the binding buffer containing 0.5 M NaCl, scintillant added, and the radioactivity was counted on a TopCount (Packard). For the determination of non-specific binding, the cell suspension and [^125I]-labeled human eotaxin/CCL11 were incubated in the presence of 500 nM of unlabeled human eotaxin/CCL11. See, lino et al., “Molecular cloning and functional characterization of cynomolgus monkey (Macaca fascicularis) CC chemokine receptor, CCR3,” Cytokine 2002, 19, 276-286.

[1] abbreviates: Free (free form of the compound).
The mark [2] stands for this setting: HCl: hydrochloric acid salt of the corresponding compound.

Turning to `Cc1ccc(C)c(Oc2ccc(C#N)cc2S(=O)(=O)N2CCNCC2)c1` [Compound 51, 4-(2,5-Dimethylphenoxy)-3-(piperazin-1-ylsulfonyl)benzonitrile], the Ki lay in the range of 100 to 500 nM under setting [1] and 25 to 100 nM under setting [2].

In turn, `CC1CN(S(=O)(=O)c2cc(C#N)ccc2Oc2cc(F)ccc2F)CC(C)N1` (stereo not drawn) [Compound 53, 4-(2,5-Difluorophenoxy)-3-(3,5-dimethylpiperazin-1-ylsulfonyl)benzonitrile] gave a Ki under setting [1] of 25 to 100 nM.

With `CC(C)N1CCN(S(=O)(=O)c2cc(C#N)ccc2Oc2cc(F)ccc2F)CC1` [Compound 54, 4-(2,5-Difluorophenoxy)-3-(4-isopropylpiperazin-1-ylsulfonyl)benzonitrile], the Ki is, setting by setting: under setting [1], 100 to 500 nM; under setting [2], 25 to 100 nM.

In the case of `CCC(CC)N1CCN(S(=O)(=O)c2cc(C#N)ccc2Oc2cc(F)ccc2F)CC1` [Compound 55, 4-(2,5-Difluorophenoxy)-3-(4-(pentan-3-yl)piperazin-1-ylsulfonyl)benzonitrile], the Ki under setting [1] was > 5 nM.

In the case of `N#Cc1ccc(Oc2cc(F)ccc2F)c(S(=O)(=O)N2CCN(C3CCCC3)CC2)c1` [Compound 56, 3-(4-Cyclopentylpiperazin-1-ylsulfonyl)-4-(2,5-difluorophenoxy)benzonitrile], the Ki lay within 25 to 100 nM under setting [1] and 25 to 100 nM under setting [2].

As to `CN1CCCN(S(=O)(=O)c2cc(C#N)ccc2Oc2cc(F)ccc2F)CC1` [Compound 57, 4-(2,5-Difluorophenoxy)-3-(4-methyl-1,4-diazepan-1-ylsulfonyl)benzonitrile], the Ki under setting [2] was > 5 nM.

On to `CN(C)C1CCN(S(=O)(=O)c2cc(C#N)ccc2Oc2cc(F)ccc2F)CC1` [Compound 59, 4-(2,5-Difluorophenoxy)-3-(4-(dimethylamino)piperidin-1-ylsulfonyl)benzonitrile], for which the Ki by setting is: under setting [1], > 5 nM; under setting [2], > 5 nM.

Turning to `N#Cc1ccc(Oc2cc(F)ccc2F)c(S(=O)(=O)N2CCC(N3CCCC3)CC2)c1` [Compound 60, 4-(2,5-Difluorophenoxy)-3-(4-(pyrrolidin-1-yl)piperidin-1-ylsulfonyl)benzonitrile], the Ki was > 5 nM under setting [1] and > 5 nM under setting [2].

With `O=[N+]([O-])c1ccc(Oc2cc(Cl)ccc2Cl)c(S(=O)(=O)N2CCC(N3CCCC3)CC2)c1` [Compound 61], the Ki under setting [1] lay within 10 to 25 nM.

Turning to `CCN(CC)CCNS(=O)(=O)c1cc(C#N)ccc1Oc1cc(F)ccc1F` [Compound 62, 5-Cyano-N-(2-(diethylamino)ethyl)-2-(2,5-difluorophenoxy)benzenesulfonamide], the Ki under setting [2] is > 5 nM.

As to `N#Cc1ccc(Oc2cc(F)ccc2F)c(S(=O)(=O)NCCN2CCCC2)c1` [Compound 63, 5-Cyano-2-(2,5-difluorophenoxy)-N-(2-(pyrrolidin-1-yl)ethyl)benzenesulfonamide], the Ki by setting is: under setting [1], > 5 nM; under setting [2], > 5 nM.

Consider `N#Cc1ccc(Oc2cc(F)ccc2F)c(S(=O)(=O)NCCN2CCCCC2)c1` [Compound 64, 5-Cyano-2-(2,5-difluorophenoxy)-N-(2-(piperidin-1-yl)ethyl)benzenesulfonamide], for which the Ki was > 5 nM under setting [1] and > 5 nM under setting [2].

Take `Cc1ccc(C)c(Sc2ccc(C#N)cc2S(=O)(=O)N2CCNCC2)c1` [Compound 65, 4-(2,5-Dimethylphenylthio)-3-(piperazin-1-ylsulfonyl)benzonitrile]: the Ki under setting [1] is > 5 nM.

As for `Cc1ccc(C)c(Sc2ccc(C#N)cc2S(=O)(=O)N2CC(C)NC(C)C2)c1` (stereo not drawn) [Compound 66, 4-(2,5-Dimethylphenylthio)-3-(3,5-dimethylpiperazin-1-ylsulfonyl)-benzonitrile], the Ki under setting [1] is ≤ 10 nM.

On to `Cc1ccc(C)c(Sc2ccc(C#N)cc2S(=O)(=O)N2CCN(C(C)C)CC2)c1` [Compound 67, 4-(2,5-Dimethylphenylthio)-3-(4-isopropylpiperazin-1-ylsulfonyl)benzonitrile], for which the Ki reads like this: under setting [1], 25 to 100 nM; under setting [2], 100 to 500 nM.

As for `CCC(CC)N1CCN(S(=O)(=O)c2cc(C#N)ccc2Sc2cc(C)ccc2C)CC1` [Compound 68, 4-(2,5-Dimethylphenylthio)-3-(4-(pentan-3-yl)piperazin-1-ylsulfonyl)benzonitrile], the Ki was 25 to 100 nM under setting [1] and 25 to 100 nM under setting [2].

Turning to `Cc1ccc(C)c(Sc2ccc(C#N)cc2S(=O)(=O)N2CCN(C3CCCC3)CC2)c1` [Compound 69, 3-(4-Cyclopentylpiperazin-1-ylsulfonyl)-4-(2,5-dimethylphenylthio)-benzonitrile], the Ki is 25 to 100 nM under setting [1] and 100 to 500 nM under setting [2].

The compound `Cc1ccc(C)c(Sc2ccc(C#N)cc2S(=O)(=O)N2CCCN(C)CC2)c1` [Compound 70, 4-(2,5-Dimethylphenylthio)-3-(4-methyl-1,4-diazepan-1-ylsulfonyl)benzonitrile] gave a Ki under setting [1] of 100 to 500 nM.

On to `Cc1ccc(C)c(Sc2ccc(C#N)cc2S(=O)(=O)N2CCOCC2)c1` [Compound 71, 4-(2,5-Dimethylphenylthio)-3-(morpholinosulfonyl)benzonitrile], for which the Ki under setting [1] was > 5 nM.

Consider `Cc1ccc(C)c(Sc2ccc(C#N)cc2S(=O)(=O)N2CCC(N(C)C)CC2)c1` [Compound 72, 3-(4-(Dimethylamino)piperidin-1-ylsulfonyl)-4-(2,5-dimethylphenylthio)-benzonitrile], for which the inhibition constant (Ki) reads like this: under setting [1], > 5 nM; under setting [2], 25 to 100 nM.

On to `CCN(CC)CCNS(=O)(=O)c1cc(C#N)ccc1Sc1cc(C)ccc1C` [Compound 73, 5-Cyano-N-(2-(diethylamino)ethyl)-2-(2,5-dimethylphenylthio)-benzenesulfonamide], for which the Ki under setting [2] was 25 to 100 nM.

As to `Cc1ccc(C)c(Sc2ccc(C#N)cc2S(=O)(=O)N2CCC(N3CCCC3)CC2)c1` [Compound 74, 4-(2,5-Dimethylphenylthio)-3-(4-(pyrrolidin-1-yl)piperidin-1-ylsulfonyl)-benzonitrile], the Ki is 10 to 25 nM under setting [1] and ≤ 10 nM under setting [2].

Regarding `Cc1ccc(C)c(Sc2ccc([N+](=O)[O-])cc2S(=O)(=O)N2CCC(N3CCCC3)CC2)c1` [Compound 75, 1-(2-(2,5-Dimethylphenylthio)-5-nitrophenylsulfonyl)-4-(pyrrolidin-1-yl)piperidine], under setting [2], the Ki is ≤ 10 nM.

`N#Cc1ccc(Sc2cc(Cl)ccc2Cl)c(S(=O)(=O)N2CCNCC2)c1` [Compound 76, 4-(2,5-Dichlorophenylthio)-3-(piperazin-1-ylsulfonyl)benzonitrile]: the Ki is, setting by setting: under setting [1], ≤ 10 nM; under setting [2], ≤ 10 nM.

For the compound `CC(C)N1CCN(S(=O)(=O)c2cc(C#N)ccc2Sc2cc(Cl)ccc2Cl)CC1` [Compound 77, 4-(2,5-Dichlorophenylthio)-3-(4-isopropylpiperazin-1-ylsulfonyl)benzonitrile], the Ki runs as follows: under setting [1], ≤ 10 nM; under setting [2], ≤ 10 nM.

Take `CCC(CC)N1CCN(S(=O)(=O)c2cc(C#N)ccc2Sc2cc(Cl)ccc2Cl)CC1` [Compound 78, 4-(2,5-Dichlorophenylthio)-3-(4-(pentan-3-yl)piperazin-1-ylsulfonyl)-benzonitrile]: the inhibition constant Ki runs as follows: under setting [1], 25 to 100 nM; under setting [2], 25 to 100 nM.

Turning to `CC1CN(S(=O)(=O)c2cc(C#N)ccc2Sc2cc(Cl)ccc2Cl)CC(C)N1` (stereo not drawn) [Compound 79, 4-(2,5-Dichlorophenylthio)-3-(3,5-dimethylpiperazin-1-ylsulfonyl)benzonitrile], the Ki under setting [1] was ≤ 10 nM and the Ki under setting [2] was ≤ 10 nM.

Take `N#Cc1ccc(Sc2cc(Cl)ccc2Cl)c(S(=O)(=O)N2CCN(C3CCCC3)CC2)c1` [Compound 80, 3-(4-Cyclopentylpiperazin-1-ylsulfonyl)-4-(2,5-dichlorophenylthio)-benzonitrile]: the Ki reads like this: ((CO2H)2 salt) 25 to 100 nM; (EtSO3H salt) ≤ 10 nM; under setting [1], ≤ 10 nM; (H2SO4 salt) ≤ 10 nM; under setting [2], ≤ 10 nM; (HNO3 salt) 25 to 100 nM. Moreover, the inhibition constant (Ki) (MeSO3H salt) is ≤ 10 nM.

With `CN1CCCN(S(=O)(=O)c2cc(C#N)ccc2Sc2cc(Cl)ccc2Cl)CC1` [Compound 81, 4-(2,5-Dichlorophenylthio)-3-(4-methyl-1,4-diazepan-1-ylsulfonyl)-benzonitrile], the Ki runs as follows: under setting [1], ≤ 10 nM; under setting [2], 10 to 25 nM.

For `CN(C)C1CCN(S(=O)(=O)c2cc(C#N)ccc2Sc2cc(Cl)ccc2Cl)CC1` [Compound 83, 4-(2,5-Dichlorophenylthio)-3-(4-(dimethylamino)piperidin-1-ylsulfonyl)benzonitrile], the Ki under setting [1] lay in the range of 25 to 100 nM and the Ki under setting [2] was ≤ 10 nM.

Turning to `N#Cc1ccc(Sc2cc(Cl)ccc2Cl)c(S(=O)(=O)N2CCC(N3CCCC3)CC2)c1` [Compound 84, 4-(2,5-Dichlorophenylthio)-3-(4-(pyrrolidin-1-yl)piperidin-1-ylsulfonyl)benzonitrile], the Ki under setting [1] was ≤ 10 nM and the Ki under setting [2] is ≤ 10 nM.

As to `Cc1ccc(C)c(Sc2ccc(C#N)cc2S(=O)(=O)N2CCSCC2)c1` [Compound 85, 4-(2,5-Dimethylphenylthio)-3-(thiomorpholinosulfonyl)benzonitrile], under setting [1], the Ki is > 5 nM.
